Assay: Crystal growth of micronized fluopyram crystals suspended in water, with or without polymeric crystal growth inhibitor, on accelerated aging (FIG. 1)
Assay type: physicochemical
Conditions: 54° C.; observed at 4 days, 35 days, then additional 2 weeks cycling -20° C./40° C.; Rhodoline 111 at 3% w/w, HPMC at 0.2% w/w
Method: FIG. 1 depicts the effect of polymeric crystal growth inhibitor on active ingredient while suspended in water. […] Polymeric crystal growth inhibitors were evaluated by suspending micronized fluopyram active ingredient crystal in water.

O=C(NCCc1ncc(C(F)(F)F)cc1Cl)c1ccccc1C(F)(F)F [fluopyram, N-[2-[3-chloro-5-(trifluoromethyl)pyridin-2-yl]ethyl]-2-(trifluoromethyl)benzamide]
crystal growth of fluopyram crystals suspended in water: severe needle-shaped crystal growth
